Several values for one entry are separate records, joined by “and”; a condition that tells them apart may be missing. Identical values can stand only once. Counter-ions that a name gives are not always drawn. One block for each compound: values may come before it. Numbered stars: 1 amine (or outer) side, 2 acyl side, 3 side chain; on linkers, the order of the positions; unused ones are H or OH. Square brackets hold non-standard residues; d marks the D form. Peptide text beside a SMILES is read from it. * marks the point of attachment. Cyclohexylacetyl(1-SH) = O=C(CC1(S)CCCCC1)*; X1 = O=C(C(C=S)N[*:1])[*:2]
Experiments:
[1] = biological target: Alpha-2C adrenergic receptor
[2] = biological target: T1, Alpha-2B adrenergic receptor (Rattus norvegicus, UniProt P19328)
T1 sequence (P19328 whole entry): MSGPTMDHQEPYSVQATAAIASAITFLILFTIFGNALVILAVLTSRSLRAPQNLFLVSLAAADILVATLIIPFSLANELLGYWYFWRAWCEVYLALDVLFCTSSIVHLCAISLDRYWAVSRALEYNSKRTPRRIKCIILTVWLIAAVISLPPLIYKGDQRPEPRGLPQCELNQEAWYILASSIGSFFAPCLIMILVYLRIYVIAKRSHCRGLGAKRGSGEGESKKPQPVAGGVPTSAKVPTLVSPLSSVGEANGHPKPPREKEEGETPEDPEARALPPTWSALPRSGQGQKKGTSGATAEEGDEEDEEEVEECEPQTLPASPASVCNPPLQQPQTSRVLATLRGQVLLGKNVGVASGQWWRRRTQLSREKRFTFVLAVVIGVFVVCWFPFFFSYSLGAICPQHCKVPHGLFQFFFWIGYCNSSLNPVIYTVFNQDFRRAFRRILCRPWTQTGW

[3] = biological target: T2, Alpha-2C adrenergic receptor (Didelphis virginiana, UniProt P35405)
T2 sequence (P35405 whole entry): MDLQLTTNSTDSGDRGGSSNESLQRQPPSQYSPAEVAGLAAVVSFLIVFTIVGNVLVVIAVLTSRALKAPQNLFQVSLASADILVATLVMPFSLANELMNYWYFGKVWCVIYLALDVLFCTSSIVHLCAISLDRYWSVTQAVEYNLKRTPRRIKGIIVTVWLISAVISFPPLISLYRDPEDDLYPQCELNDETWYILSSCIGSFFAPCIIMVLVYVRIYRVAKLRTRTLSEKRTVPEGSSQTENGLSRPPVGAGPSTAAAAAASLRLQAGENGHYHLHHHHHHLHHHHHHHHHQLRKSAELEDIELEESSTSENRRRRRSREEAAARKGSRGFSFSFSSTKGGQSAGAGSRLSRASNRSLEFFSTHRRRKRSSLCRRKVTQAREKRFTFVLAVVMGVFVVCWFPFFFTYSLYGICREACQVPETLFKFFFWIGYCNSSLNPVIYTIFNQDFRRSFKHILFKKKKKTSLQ

[4] = biological target: T3, Alpha-2A adrenergic receptor (Homo sapiens, UniProt P08913)
T3 sequence (P08913 whole entry): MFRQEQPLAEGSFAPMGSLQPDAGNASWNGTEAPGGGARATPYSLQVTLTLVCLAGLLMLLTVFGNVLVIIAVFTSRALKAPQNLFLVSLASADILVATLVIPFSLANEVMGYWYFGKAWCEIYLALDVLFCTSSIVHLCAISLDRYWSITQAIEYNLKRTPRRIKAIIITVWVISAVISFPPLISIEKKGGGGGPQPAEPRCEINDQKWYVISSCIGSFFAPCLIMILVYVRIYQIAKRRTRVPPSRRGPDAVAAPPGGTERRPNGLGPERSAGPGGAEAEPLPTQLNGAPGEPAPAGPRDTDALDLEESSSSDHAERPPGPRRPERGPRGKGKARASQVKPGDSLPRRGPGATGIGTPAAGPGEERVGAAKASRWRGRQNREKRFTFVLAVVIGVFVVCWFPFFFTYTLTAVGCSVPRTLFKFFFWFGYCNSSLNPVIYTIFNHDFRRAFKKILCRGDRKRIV

Structure (SMILES): c1ccc(CC2=NCCN2)cc1 [Tolazoline]
Ki [1]: 222 nM
Ki [2]: 113 nM

Structure (SMILES): Clc1ccc2nsnc2c1NC1=NCCN1
Ki [1]: 75 nM
Ki [2]: 76 nM

Structure (SMILES): COc1cc2nc(N3CCN(C(=O)c4ccco4)CC3)nc(N)c2cc1OC [[3H]-Minipress]
Ki [1]: 15 nM
Ki [3]: 36 nM

Structure (SMILES): OCCN1CCN(CCCN2c3ccccc3Sc3ccc(C(F)(F)F)cc32)CC1 [2-[4-[3-[2-(trifluoromethyl)phenothiazin-10-yl]propyl]piperazin-1-yl]ethanol;hydrochloride]
Ki [1]: 122 nM
Ki [4]: 304 nM
Ki [2]: 320 nM

Structure (SMILES): COC(=O)C1=COC(C)C2CN3CCc4c([nH]c5ccccc45)C3CC12 (stereo unspecified) [Ajmalicine]
Ki [1]: 1.1 nM and 0.3 nM

Structure (SMILES): CN1CCN(C2=Nc3ccccc3Sc3nccn32)CC1 [CGS-10746B]
Ki [1]: 804 nM
Ki [4]: 3600 nM
Ki [2]: 574 nM

Structure (SMILES): CCCN(CCC)C1CCc2cccc(O)c2C1 (stereo unspecified)
Ki [1]: 117 nM
Ki [4]: 186 nM
Ki [2]: 148 nM

Structure (SMILES): Fc1cccnc1N1CCNCC1 [L-644,763]
Ki [1]: 20 nM
Ki [4]: 20 nM
Ki [2]: 23 nM

Structure (SMILES): CCCS(=O)(=O)N(C)C1CCN2CCc3ccccc3C2C1 (stereo unspecified) [CAS_133816]
Ki [1]: 0.86 nM
Ki [4]: 2.2 nM
Ki [2]: 1.9 nM

Structure (SMILES): CN(C)CCCN1c2ccc(O)cc2Sc2ccc(Cl)cc21 [NSC_16414]
Ki [1]: 325 nM
Ki [2]: 59 nM

Structure (SMILES): CS(=O)(=O)NCCN(C1CCN2CCc3ccccc3C2C1)S(C)(=O)=O (stereo unspecified) [CAS_125697]
Ki [1]: 0.56 nM
Ki [4]: 11 nM
Ki [2]: 5.2 nM

Structure (SMILES): CCOc1ccc(CC(NC(=O)CC2(S)CCCCC2)C(=O)NC(Cc2ccccc2)C(=O)NC(C(=O)NC(CC(N)=O)C(=O)NC(C=S)C(=O)NC(CCCCN)C(N)=O)C(C)C)cc1 (stereo unspecified) [CAS_196343] ({Cyclohexylacetyl(1-SH)}-Y(Et)FVN[X1]K-NH2; configuration not given here)
Ki [1]: 0.14 nM
Ki [4]: 0.36 nM
Ki [2]: 0.48 nM

Structure (SMILES): Oc1ccc(C2CNCCc3c2cc(O)c(O)c3Cl)cc1 (stereo unspecified) [MLS001401388]
Ki [1]: 22 nM
Ki [2]: 91 nM

Structure (SMILES): Cc1cccc(C)c1CCc1cnc[nH]1 [CAS_133305]
Ki [1]: 14 nM
Ki [4]: 8.7 nM
Ki [2]: 18 nM

Structure (SMILES): CCC1(c2cnc[nH]2)Cc2ccccc2C1 [NSC_71310]
Ki [1]: 0.46 nM
Ki [4]: 0.33 nM
Ki [3]: 2.74 nM

Ki [1]: 42 nM
Ki [4]: 53 nM
Ki [2]: 12 nM
Structure (SMILES): CC(C)(C)[C@]1(O)CCN2C[C@H]3c4ccccc4CCc4cccc(c43)[C@@H]2C1

Structure (SMILES): CN1c2ccc(F)cc2CC1C1=NCCN1 (stereo unspecified)
Ki [1]: 0.48 nM
Ki [4]: 0.4 nM
Ki [2]: 1 nM

Ki [3]: 73 nM
Structure (SMILES): Cc1cc(C(C)(C)C)c(O)c(C)c1CC1=NCCN1 [SMR000059324]

Structure (SMILES): O=C1NCN(c2ccccc2)C12CCN(CC1COc3ccccc3O1)CC2 (stereo unspecified) [8-(2,3-Dihydro-benzo[1,4]dioxin-2-ylmethyl)-1-phenyl-1,3,8-triaza-spiro[4.5]decan-4-one]
Ki [1]: 0.59 nM
Ki [4]: 13 nM
Ki [2]: 0.34 nM
Ki [3]: 0.67 nM

Structure (SMILES): Clc1cccc2c1CN(NC1=NCCN1)C2 [CAS_76727-72-5]
Ki [1]: 0.08 nM
Ki [4]: 0.06 nM
Ki [2]: 0.14 nM

Ki [3]: 116 nM
Structure (SMILES): CN(C)CCCN1c2ccccc2Sc2ccc(Cl)cc21 [[3-(2-Chloro-phenothiazin-10-yl)-propyl]-dimethyl-amine(Chlorpromazine)]

Structure (SMILES): CCOC1(C2=NCCN2)COc2ccccc2O1 (stereo unspecified) [NSC_125992]
Ki [1]: 0.24 nM
Ki [4]: 0.2 nM
Ki [2]: 0.58 nM

Structure (SMILES): CN1CCN(C2=c3ccccc3=Nc3ccc(Cl)cc3N2)CC1 [6-chloro-10-(4-methylpiperazin-1-yl)-2,9-diazatricyclo[9.4.0.0^{3,8}]pentadeca-1,3(8),4,6,10,12,14-heptaene]
Ki [1]: 4.2 nM

Structure (SMILES): CCCCS(=O)(=O)N(C)[C@H]1CCN2CCc3ccccc3[C@H]2C1 [N-[(2S,11bR)-2,3,4,6,7,11b-hexahydro-1H-benzo[a]quinolizin-2-yl]-N-methylbutane-1-sulfonamide hydrochloride]
Ki [1]: 0.46 nM
Ki [4]: 1.4 nM
Ki [2]: 1.7 nM

Structure (SMILES): O=C(c1ccc(F)cc1)C1CCN(CCn2c(=O)[nH]c3ccccc3c2=O)CC1 [3-(2-{4-[(4-fluorophenyl)carbonyl]piperidin-1-yl}ethyl)-1,2,3,4-tetrahydroquinazoline-2,4-dione]
Ki [1]: 159 nM
Ki [2]: 226 nM

Structure (SMILES): CC(C)=CCOc1ccc(Cl)c2c1CCN(C)CC2 [SK&F-104078]
Ki [1]: 43 nM
Ki [4]: 32 nM
Ki [2]: 49 nM

Structure (SMILES): CN1CCc2cccc(Cl)c2CC1 [MLS002172470]
Ki [1]: 2.7 nM
Ki [4]: 2.4 nM
Ki [2]: 1.8 nM

Structure (SMILES): O=C1c2ccccc2CCC1CNCCc1ccc(O)cc1 (stereo unspecified) [CAS_34772]
Ki [1]: 0.5 nM
Ki [4]: 0.93 nM
Ki [2]: 0.68 nM

Structure (SMILES): COc1ccccc1N1CCN(CCC2C(=O)c3ccccc3C(C)(C)C2=O)CC1 (stereo unspecified) [NSC_122211]
Ki [1]: 13 nM
Ki [4]: 171 nM
Ki [2]: 1.6 nM
Ki [3]: 48 nM

Structure (SMILES): CSc1ccc2c(c1)N(CC[C@@H]1CCCCN1C)c1ccccc1S2 [10-[2-(1-Methyl-piperidin-2-yl)-ethyl]-2-methylsulfanyl-10H-phenothiazine (thioridazine)]
Ki [1]: 549 nM

Structure (SMILES): Cc1nc2n(c(=O)c1CCN1CCC(C(=O)c3ccc(F)cc3)CC1)CCS2 [CAS_86487-64-1]
Ki [1]: 51 nM
Ki [4]: 90 nM
Ki [2]: 25 nM

Structure (SMILES): Clc1cncc(N2CCNCC2)n1 [L-630,571]
Ki [1]: 126 nM
Ki [4]: 153 nM
Ki [2]: 125 nM

Structure (SMILES): c1ccc2c(c1)OCC(C1=NCCN1)O2 (stereo unspecified)
Ki [1]: 0.56 nM
Ki [3]: 2.4 nM

Structure (SMILES): COC(=O)C1=CO[C@@H](C)[C@@H]2CN3CCc4c([nH]c5ccccc45)[C@H]3C[C@H]12 [AKUAMMIGINE]
Ki [1]: 12 nM
Ki [4]: 130 nM
Ki [2]: 208 nM

Structure (SMILES): COc1cccc(OC)c1OCCNCC1Oc2ccccc2OC1c1ccccc1 (stereo unspecified) [NSC_185453]
Ki [1]: 0.27 nM
Ki [4]: 1.2 nM
Ki [2]: 8.7 nM
Ki [3]: 1.6 nM

Structure (SMILES): c1ccc2c(c1)OCC(CN1CCCCC1)O2 (stereo unspecified) [Piperoxan]
Ki [1]: 1.3 nM
Ki [4]: 5.4 nM
Ki [2]: 2 nM

Structure (SMILES): C=CCN1Cc2ccccc2-c2ccccc2C1 [NSC_8966]
Ki [1]: 14 nM
Ki [4]: 38 nM
Ki [2]: 5.3 nM

Structure (SMILES): c1cn2ccnc2c(N2CCNCC2)n1 [L-639,019]
Ki [1]: 88 nM
Ki [4]: 35 nM
Ki [2]: 34 nM

Structure (SMILES): CN1CCC2(CCN3CCc4c(oc5ccccc45)C3C2)N(C)C1=O (stereo unspecified) [MK-912]
Ki [1]: 0.03 nM
Ki [4]: 0.42 nM
Ki [2]: 0.26 nM

Structure (SMILES): CN1C[C@H](Cn2ccnc2-c2ccccc2)C[C@@H]2c3cccc4[nH]c(Br)c(c34)C[C@H]21 [BAM-1303]
Ki [1]: 0.38 nM
Ki [4]: 2.5 nM
Ki [2]: 26 nM
